According to paper PMC6269736, “Antimalarial Activity of 4-Metoxychalcones: Docking Studies as Falcipain/Plasmepsin Inhibitors, ADMET and Lipophilic Efficiency Analysis to Identify a Putative Oral Lead Candidate” (Molecules, 2013):
Where two headings read alike, the source gives them in different places.

Experiments:
in vitro = type: cell-based; details: human
Method: The cytotoxicity of the compounds was assessed with the HeLa human cell line (cervix adenocarcinoma ATCC# CCl-2) using the MTT (3-(4,5-dimethylthiazol-2-yl)-2,5-diphenyltetrazolium bromide) (Sigma, St. Louis, MO, USA) colorimetric method. Briefly, the cells were plated in 96-well plates (1 × 10^5 cells/well) and incubated for 24 h at 37 °C in a humidified atmosphere with 5% CO2. After 24 h, the wells were washed with culture medium (RPMI + 10% inactivated fetal calf serum + 2 mM L-glutamine) and incubated with the compounds at various concentrations (0.05 to 500 µM). After 48 h incubation, the plates were treated with MTT. The colorimetric reading was performed in a microplate reader Spectramax M5e (Molecular Devices, Sunnyvale, CA, USA) at 550 nm. Cytotoxicity was scored as the percentage reduction in absorbance versus untreated control cultures. All experiments were performed in triplicate. […] The IC50 and LC50 values were calculated using OriginPro8.0 (OriginLab Corporation, Northampton, MA, USA) software. A selectivity index (SI), corresponding to the ratio between the cytotoxic and antiparasitic activities of each compound, was calculated as follows: SI = LC50 HeLa/IC50 Plasmodium falciparum

[1] = test system: P. falciparum clone W2 (chloroquine-resistant); assay: In vitro antiplasmodial activity, Giemsa-stained smear parasitaemia after 48 h; type: cell-based, Plasmodium falciparum; details: for IC50: Plasmodium falciparum; for SI (selectivity index): SI = LC50 HeLa/IC50 Plasmodium falciparum
Method: The human red blood cells and plasma were ceded by the Fundação Hemominas-Hemonúcleo Divinópolis. The synchronization of the parasites was achieved by sorbitol treatment and parasitaemia was determined microscopically in Giemsa-stained smears.
Briefly, ring-stage parasites in sorbitol-synchronized blood cultures were added to 96-well culture plates with 2% parasitaemia and 2% haematocrit and then incubated with the test compounds. The compounds were diluted in complete media, from 10 mg/mL stock solutions in DMSO, at various concentrations (0.1–30 µM). After 48 h incubation, Giemsa-stained blood smears were taken for microscopic evaluation of parasitaemia. All experiments were performed in triplicate.

[2] = P. falciparum W2, 48 h incubation, triplicate, mean ± spread, read-out: IC50, in vitro antiplasmodial activity
[3] = P. falciparum W2, from IC50, read-out: pIC50 (converted)

Compound	IC50 [1, 2] [µM]	IC50 [1, 3] [µM]	CC50 at 48 h (in vitro) [µM]	SI (selectivity index) [1]	IC50 ([1]; W2, 48 h, read-out: IC50, in vitro antiplasmodial activity) [µM]	IC50 ([1]; W2, read-out: pIC50 (converted)) [µM]
COc1ccc(/C=C/C(=O)c2ccccc2)cc1S(=O)(=O)Nc1ccc(Cl)cc1 [Compound 1e]	2.83 ± 0.21	2.82	10.5 ± 2.27	3.7		
CCN(CC)S(=O)(=O)c1cc(/C=C/C(=O)c2ccccc2)ccc1OC [Compound 1g]	11 ± 0.57	11	20.7 ± 1.6	1.9		
COc1ccc(NS(=O)(=O)c2cc(/C=C/C(=O)c3ccccc3)ccc2OC)cc1 [Compound 1d]	3.64 ± 0.4	3.64	11.1 ± 1.96	3.0		
CCN(CC)CCCC(C)Nc1ccnc2cc(Cl)ccc12 (centres unmarked) [CQ, chloroquine, reference compound]					0.45 ± 0.04	0.454
COc1ccc(/C=C/C(=O)c2ccccc2)cc1S(=O)(=O)N(C)C [Compound 1b]	5.79 ± 0.12	5.79	20.7 ± 1.62	3.6		
COc1ccc(/C=C/C(=O)c2ccccc2)cc1S(=O)(=O)Nc1ccc(Cl)c(Cl)c1 [Compound 1f]	4.33 ± 0.06	4.33	19 ± 0.43	4.4		

Second part, led by results:

IC50 [1, 2] [µM]	IC50 [1, 3] [µM]	Compound	CC50 at 48 h (in vitro) [µM]	SI (selectivity index) [1]	IC50 ([1]; W2, 48 h, read-out: IC50, in vitro antiplasmodial activity) [µM]	IC50 ([1]; W2, read-out: pIC50 (converted)) [µM]
2.06 ± 0.05	2.07	COc1ccc(/C=C/C(=O)c2ccccc2)cc1S(=O)(=O)N1CCOCC1 [Compound 1a]	18.6 ± 1.26	9.0		
2.03 ± 0.28	2.03	COc1ccc(/C=C/C(=O)c2ccccc2)cc1S(=O)(=O)Nc1ccccc1 [Compound 1c]	11.5 ± 0.23	5.7		
2.07 ± 0.22	2.07	COc1ccc(/C=C/C(=O)c2ccccc2)cc1S(=O)(=O)N1CCCC1 [Compound 1i]	9.18 ± 1.51	4.4		
1.96 ± 0.02	1.96	COc1ccc(/C=C/C(=O)c2ccccc2)cc1S(=O)(=O)NCc1ccccc1 [Compound 1h]	9.42 ± 2.09	4.8		
